Measurements reported in patent US10766940B2, “Brain penetrant amylin receptor based peptides for Alzheimer's disease” (The Governors of the University of Alberta, priority 2016, dated 2020).
Blank lines part the entries; values can stand above or below the compound they belong to. Positions of bridges follow the written chain, without caps; N, C: chain ends. Non-standard residues stand in square brackets, D forms with d. Residues, ends and D or L forms follow the SMILES beside them. No end group written: not given here. Cy5.5 = near-infrared dye, attached as Cy5.5-NHS ester; βAla = NCCC(=O)O

What was measured:
[1] = In vivo and ex vivo NIRF brain imaging after ip injection, wild-type mice; details: for ability to penetrate the blood brain barrier: single ip administration, wild-type mice, NIR fluorescence
Protocol: For in vivo imaging experiments, 6-12 month-old TgCRND8, age-matched wild-type littermate, and heterozygous CTR knockdown mice (50% CTR expression level compared to wild type control mice and presumably with 50% AMY receptor expression level) were used (n=5 in each group). The animals were anesthetized with ketamine ip injection. The fur was shaved from the head and dorsal side of the body to avoid laser scattering caused by hair. […] Wild type mice injected with 200 μl saline were used as a background.
Images were acquired with a Kodak IS2000MM Image station (GE Healthcare Systems/ART Inc.), excitation filter 625/20 band pass, emission filter 700 W band pass, light source was 150 W quartz halogen lamp set to 100 (max). Images were captured with a CCD camera set to F stop=0, FOV=150, FP=0. Exposure time was 2 min per image for NIRF image and 1 s for visible image. To evaluate for fluorescence concentration, the region of interest was drawn around the brain region and analyzed using the Kodak ID 3.6 software and the mean fluorescence intensity was recorded.

[2] = In vivo pharmacokinetics and bio-distribution of cAC253
Protocol: There were 3 mice in each dose group. After 2 hours the mice were sacrificed to collect their brains which were imaged in a Kodak imager. […] The heart, liver, lung, spleen, intestine, stomach, kidney and brain were excised after perfusion with PBS, and kept in dry ice before Kodak imaging. Fluorescence was quantified, and analyzed as previously.

[3] = after ip injection, 2 h, brain homogenate fluorescence vs standard
[4] = Lipophilicity, shake flask 1-octanol/water partition; format: physicochemical
Protocol: Peptides hydrophobicity was determined using the shake flask method and 1-octanol/water partition coefficient (log Po/w) was determined. […] Peptide concentration (area) in both phases (1-octanol and water) were analyzed by RP-HPLC. The final log Po/w value was calculated by dividing the concentration (C) of the peptide in the two phases as presented by the area under the peak (partition coefficients=C1-octanol/Cwater).

[5] = In vivo competition with unlabeled cAC253, ex vivo brain fluorescence; design: species or system mouse; details: 40 μg Cy5.5 cAC253 + 5-fold excess (200 μg) unlabeled cAC253 ip, 2 hr
Protocol: Additionally, a competition in vivo experiment was also carried out. […] Brains were then extracted and scanned ex-vivo for fluorescence concentration. For ex vivo histological study, brains were excised and embedded in OCT, then sliced into 20-μm slices, co-stained with DAPI in mounting medium.

[6] = Peptide stability in human serum; format: in vitro ADME; details: 37° C.
Protocol: For the serum stability experiments, human serum or liver homogenate (250 μL) were added to DMEM medium (650 μL) in a 1.5 mL Eppendorf tube to mimic a biological system. The temperature was equilibrated at 37±1° C. for 30 minutes before adding 100 μL of the peptide stock solution (1 mM solution in 10% DMSO in sterile water). An aliquot of reaction solution (100 μL) was removed from the sample at different time points 0, 3, 5, 10, 20, and 30 minutes added to pure methanol (300 μL) for precipitation of the serum proteins present in the human serum proteins by centrifugation (10,000 rpm, 5 minutes). The clear supernatant was analyzed by reversed phase HPLC, and the appropriate fractions were collected for identification using MALDI-TOF. Proteolysis kinetics of the peptides was analyzed by following the decrease in the concentration of the intact peptide as a function of time. The t1/2 half-lives of peptides were calculated.

[7] = biological target: T1, AMY1 (Homo sapiens, UniProt O60894+P30988); experiment: Peptide array-cell binding assay, AMY1 transfected cells; details: membrane screening AMY1-3 subtypes
T1 construct: expressed in transfected cells
T1 sequence (P30988 25-474): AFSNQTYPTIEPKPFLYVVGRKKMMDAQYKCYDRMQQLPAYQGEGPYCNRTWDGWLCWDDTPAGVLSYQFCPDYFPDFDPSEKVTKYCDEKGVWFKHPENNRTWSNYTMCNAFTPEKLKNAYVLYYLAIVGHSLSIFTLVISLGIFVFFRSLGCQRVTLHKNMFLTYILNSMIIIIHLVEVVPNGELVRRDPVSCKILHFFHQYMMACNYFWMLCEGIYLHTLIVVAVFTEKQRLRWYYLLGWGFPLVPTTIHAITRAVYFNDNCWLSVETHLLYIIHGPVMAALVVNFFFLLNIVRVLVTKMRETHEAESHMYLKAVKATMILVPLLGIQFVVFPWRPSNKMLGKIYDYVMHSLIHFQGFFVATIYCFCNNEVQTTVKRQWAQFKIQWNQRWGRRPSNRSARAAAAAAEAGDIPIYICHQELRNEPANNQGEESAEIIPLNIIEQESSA
T1 sequence (O60894 27-148 partner): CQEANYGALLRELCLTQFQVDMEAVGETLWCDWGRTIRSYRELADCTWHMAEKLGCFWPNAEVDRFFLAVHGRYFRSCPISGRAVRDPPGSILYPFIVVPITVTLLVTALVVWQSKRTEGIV

Compound: Cy5-cAC253: cAC253 with extra β-alanine spacer, N-terminally labeled with near-infrared dye Cy5.5-NHS ester ({Cy5.5-βAla}-[dC]LGRLSQELHRLQTYPRTNTGSNTY[dC]-NH2; disulfide 1-26)
half-life of brain fluorescence signal ([2]; mouse, in vivo, ip, 20 mg/kg): 16 h

Compound: CC(C)C[C@@H]1NC(=O)[C@H](N)CSSC[C@H](C(N)=O)NC(=O)[C@H](Cc2ccc(O)cc2)NC(=O)[C@H]([C@@H](C)O)NC(=O)[C@H](CC(N)=O)NC(=O)[C@H](CO)NC(=O)CNC(=O)[C@H]([C@@H](C)O)NC(=O)[C@H](CC(N)=O)NC(=O)[C@H]([C@@H](C)O)NC(=O)[C@H](CCCNC(=N)N)NC(=O)[C@@H]2CCCN2C(=O)[C@H](Cc2ccc(O)cc2)NC(=O)[C@H]([C@@H](C)O)NC(=O)[C@H](CCC(N)=O)NC(=O)[C@H](CC(C)C)NC(=O)[C@H](CCCNC(=N)N)NC(=O)[C@H](Cc2c[nH]cn2)NC(=O)[C@H](CC(C)C)NC(=O)[C@H](CCC(=O)O)NC(=O)[C@H](CCC(N)=O)NC(=O)[C@H](CO)NC(=O)[C@H](CC(C)C)NC(=O)[C@H](CCCNC(=N)N)NC(=O)CNC1=O [cAC253] (H-[dC]LGRLSQELHRLQTYPRTNTGSNTY[dC]-NH2; disulfide 1-26; N-terminus assumed)
brain concentration [3]: 10 to 100 nM | logP ([4]; 1-octanol/water shake flask, read-out: log P): -1.05 | Partition coefficient ([4]; Table 2, 1-octanol/PBS shake flask): 1.22 | bio-distribution in organs ([2]; 2 h after injecting 20 mg/kg): mainly observed in the eliminating organs such as kidneys, liver and in the injection sites (intestine) | reduction of brain fluorescence signal by excess unlabeled cAC253 [5]: 75% | stability in human serum relative to AC253 [6]: seven-fold increase | stability in human serum relative to AC253 ([6]; listed as Cyclic-AC253): 7 times | half-life ([6]; human, serum, RP-HPLC of intact peptide): 7 h | ex-vivo brain fluorescence signal relative to saline injection ([1]; 2 h post ip injection, 0.1 mmol in 200 μl saline): 2.8 fold | further increase of brain fluorescence level at 6 h ([1]; 6 h post-ip injection, 0.01 mmol): 20% | ability to penetrate the blood brain barrier [1]: penetrate the blood brain barrier

Results, then the compound that gave them:

clearance from the brain at 6 h ([1]; mouse, in vivo, ip): rapid clearance from the brain
Compound: CC[C@H](C)[C@H](NC(=O)[C@H](C)NC(=O)[C@@H](N)Cc1c[nH]cn1)C(=O)N[C@@H](Cc1ccc(O)cc1)C(=O)N1CCC[C@H]1C(=O)N[C@@H](CCCNC(=N)N)C(=O)N[C@@H](Cc1c[nH]cn1)C(N)=O [T7, HAIYPRH, reference compound]

ability to penetrate the blood brain barrier [1]: could not on its own cross the BBB
Compound: C[N+]1=C(C=CC=CC=C2N(CCCCCC(=O)ON3C(=O)CCC3=O)c3ccc4ccccc4c3C2(C)C)C(C)(C)c2c1ccc1ccccc21.[Cl-] [Cy5 dye, Cyanine5.5 NHS ester dye, reference compound]

binding to AMY1 cells on peptide array (fluorescence) [7]: AMY1 specific peptide
Compound: RLQTYPRTNTGS (RLQTYPRTNTGS-NH2) [R10]
